Source: ChEMBL document CHEMBL1132902, “Bicyclic nucleoside inhibitors of Varicella-Zoster Virus (VZV): the effect of a terminal halogen substitution in the side-chain” (Bioorg Med Chem Lett, 2000)
The source made the active and inactive calls. No cut-off for these calls is given here.

How the values were obtained:
Human alphaherpesvirus 3 [1] = experiment: The compound was tested for its effective concentration required to reduce virus plaque formation by using Varicella-Zoster virus OKA strain; assay type: functional, organism-based
Human alphaherpesvirus 3 [2] = experiment: The compound was tested for its effective concentration required to reduce virus plaque formation by using TK (thymidine kinase -deficient) -Varicella-Zoster virus YS/R strain; assay type: functional, organism-based
HEL = experiment: The compound was tested for cytotoxic concentration required to inhibit Hel cell growth by 50%; assay type: functional; details: Homo sapiens
Human alphaherpesvirus 3 [3] = experiment: The compound was tested for its effective concentration required to reduce virus plaque formation by using TK (thymidine kinase -deficient)-Varicella-Zoster virus 07/1 strain; assay type: functional, organism-based
[4] = The compound was tested for its minimal cytotoxic concentration required to alter microscopically detectable cell morphology; assay type: functional
Human alphaherpesvirus 3 [5] = experiment: The compound was tested for its effective concentration required to reduce virus plaque formation by using Varicella-Zoster virus YS strain; assay type: functional, organism-based
Human alphaherpesvirus 2 [6] = experiment: Compound was tested (in vitro) against Herpes simplex virus-2; Not active; assay type: functional, organism-based
Cytomegalovirus [7] = experiment: Compound was tested (in vitro) against Cytomegalovirus virus or HIV-1; Not active; assay type: functional, organism-based
[8] = tested on: Human immunodeficiency virus 1; experiment: In vitro activity of compound against HIV-1; Not active; assay type: functional, organism-based
Human alphaherpesvirus 2 [9] = experiment: In vitro activity against Herpes simplex virus-2; assay type: functional, organism-based
Cytomegalovirus [10] = experiment: In vitro activity against Cytomegalovirus virus; assay type: functional, organism-based
Human alphaherpesvirus 1 = experiment: In vitro activity against Herpes simplex virus-1; Not active; assay type: functional, organism-based
Human alphaherpesvirus 3 [11] = experiment: The compound was tested for its effective concentration required to reduce virus plaque formation by using TK- (thymidine kinase -deficient)-Varicella-Zoster virus 07/1 strain; assay type: functional, organism-based
Cytomegalovirus [12] = experiment: Compound was tested (in vitro) against Cytomegalovirus virus or HIV-1; assay type: functional, organism-based
Human alphaherpesvirus 2 [13] = experiment: Compound was tested (in vitro) against Herpes simplex virus-2; assay type: functional, organism-based

SMILES	EC50 (Human alphaherpesvirus 3 [1]) [µM]	EC50 (Human alphaherpesvirus 3 [2]) [µM]	CC50 (HEL) [µM]	EC50 (Human alphaherpesvirus 3 [3]) [µM]	MCC [4] [µM]	EC50 (Human alphaherpesvirus 3 [5]) [µM]	Activity (Human alphaherpesvirus 2 [6])	Activity (Cytomegalovirus [7])	Activity [8]	Activity (Human alphaherpesvirus 2 [9])	Activity (Cytomegalovirus [10])	Activity (Human alphaherpesvirus 1)	EC50 (Human alphaherpesvirus 3 [11]) [µM]	Activity (Cytomegalovirus [12])	Activity (Human alphaherpesvirus 2 [13])
O=c1[nH]c(=O)n([C@H]2C[C@H](O)[C@@H](CO)O2)cc1C#CCCCCCCCCCCl	3.6	9.6	74	10	200	2.8	–	–	–	–	–	–	–	–	–
O=c1nc2oc(CCCCCCCCCBr)cc2cn1[C@H]1C[C@H](O)[C@@H](CO)O1	0.026	50	> 50	> 50	> 200	0.031	inactive	inactive	inactive	–	–	–	–	–	–
CCCCCCCCCCc1cc2cn([C@H]3C[C@H](O)[C@@H](CO)O3)c(=O)nc2o1	–	> 50	> 50	> 50	> 50	–	–	–	–	–	–	–	–	–	–
O=c1nc2oc(CCCCCCCCCF)cc2cn1[C@H]1C[C@H](O)[C@@H](CO)O1	0.022	> 20	200	> 20	> 50	0.014	–	–	inactive	inactive	inactive	inactive	–	–	–
O=c1nc2oc(CCCCCCCCCI)cc2cn1[C@H]1C[C@H](O)[C@@H](CO)O1	0.061	> 50	> 200	> 50	50	0.034	inactive	inactive	inactive	–	–	–	–	–	–
Nc1nc2c(ncn2COCCO)c(=O)[nH]1 [ACYCLOVIR]	–	–	> 200	–	> 200	–	–	–	–	–	–	–	–	–	–
O=c1[nH]c(=O)n([C@H]2C[C@H](O)[C@@H](CO)O2)cc1C#CCCCCCCCCCF	26	23	116	–	200	22	–	–	–	–	–	–	33	–	–
O=c1[nH]c(=O)n([C@H]2C[C@H](O)[C@@H](CO)O2)cc1C#CCCCCCCCCCI	13	31	68	36	> 50	6	–	–	–	–	–	–	–	–	–
O=c1nc2oc(CCCCCCCCCCl)cc2cn1[C@H]1C[C@H](O)[C@@H](CO)O1	0.007	13	200	15	> 200	0.012	–	–	inactive	–	–	–	–	inactive	inactive
O=c1[nH]c(=O)n([C@H]2C[C@H](O)[C@@H](CO)O2)cc1C#CCCCCCCCCCBr	1.1	2.5	97	16	50	0.8	–	–	–	–	–	–	–	–	–
